Measured values taken from patent US20090117083A1, “IMMUNOMODULATORY ALKALOIDS” (M N L PHARMA LIMITED, priority 2004, published 2009).
pIC50: −log10 of the molar value.

Key:
Naringinase = assay: Glycosidase inhibition: Naringinase; assay type: biochemical, Penecillium decumbens; conditions: 1 mg/ml
In short: (§1)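 Screening used 3.57 mM (final) p-nitrophenyl substrates in McIlvaine buffer at each enzyme's pH optimum, 20° C, with endpoint reading at 405 nm.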

B16-F10 tumour cells = assay: Control of lung metastasis in mice (B16-F10); assay type: in vivo, C57/bl6 mice; conditions: 50 mg/kg s/c on days 2 and 4; lungs on day 14
Description: Mice (C57/bl6 under i/p ketamine anaesthesia) were challenged i/v (tail vein) with 5×10^4 B16-F10 tumour cells in a final volume of 100 μl per mouse on day 0. Test compounds (50 mg/kg in 200 μl sterile non-pyrogenic saline) were administered sic (right flank) on days 2 and 4. On day 14 the mice were sacrifices and the lungs dissected and stained in Indian ink solution (150 ml bidistilled water, 30 ml India Ink, 4 drops NH4OH) for 10 minutes then fixed for at least 24 hr in Fakete's solution (90 ml 37% formaldehyde, 900 ml 70% EtOH and 45 ml glacial acetic acid). The metastases in the stained and fixed lungs could then be visualized, counted and photographed.

α-D-glucosidase [1] = assay: Glycosidase inhibition: α-D-glucosidase, Bacillus; assay type: biochemical, Bacillus stearothermophilus; conditions: 1 mg/ml
In short: as §1

[2] = biological target: T1, rabbit small intestine sucrase (Oryctolagus cuniculus, UniProt P07768); assay: Inhibition of rabbit small intestine sucrase; assay type: biochemical; conditions: 700 μM
T1 construct: from tissue; host or cells: rabbit small intestine

[3] = tested on: Na^+-dependent D-glucose uptake; assay: Na+-dependent D-glucose uptake into intestinal brush border membrane vesicles; assay type: biochemical, ovine
[4] = biological target: rabbit gut mucosa α-D-glucosidase; assay: Inhibition of rabbit gut mucosa α-D-glucosidase; assay type: biochemical
β-D-glucosidase = assay: Glycosidase inhibition: β-D-glucosidase, almond; assay type: biochemical, Almonds (Prunus sp.)
In short: as §1

B16G/F10 melanoma cells = assay: B16/F10 melanoma lung colonies in mice; assay type: in vivo, C57BL/6 mice; conditions: for Colony Count: Day 21, mean ± s.e.m.; for % Reduction: versus vehicle
Description: There were 5 treatment groups in the study, with 6 mice arbitrarily allocated to each group. The treatment groups were as follows:
The dose volume was the daily intake for all animals. Test substances were administered to mice in Groups 2, 3, 4 and 5, as solutions in sterile water for 41 h 32 min prior to tumour cell injection (Day 0 is the day of tumour cell injection).
Mice were injected intravenously, via a tail vein, with 0.1 ml of a suspension of B16G/F10 melanoma cells (approximately 1×10^5 cells/mouse) on Day 0.
All dosing solutions were prepared on the first day of dosing (Day −2) and were kept at room temperature.
Mice: Female C57BL/6 mice were supplied and delivered by Charles River UK Limited. The animals were approximately 6-8 weeks of age on arrival. The animals were acclimatized for 29 days prior to the start of the study, and the body weights at the start of dosing were in the range 18-23 g. During the study, the animals were housed in groups of up to 6 in pediatric filter-topped cages with sawdust bedding (autoclaved for sterility). The room and cages were cleaned at regular intervals each week to maintain hygiene. The mice were fed an expanded rodent diet of RM1(E) SQC (batch number 3822; Special Diets Services, Witham, UK) ad libitum and allowed access to sterilized water (N.V. Nutricia, Zoetermeer, The Netherlands). For Groups 2, 3, 4 and 5, the drinking water also contained the appropriate level of test substance for the duration of the dosing period. […] During the acclimatization and study period the temperature range in the rooms was 18-22° C. and the humidity range was 44-79%.
Tumour challenge: B18F10 murine tumour cells (Shrayer D, Bogaars H. Hearing V. J. Maizel A. & Wanebo H. Further characterization of a clinically relevant model of melanoma metastasis and an effective vaccine. Cancer Immunology, Immunotherapy 1995: 40; 277-282) were harvested from sub-confluent cultures growing in vitro, using minimum trypsination. They were washed in sterile phosphate buffered saline (PBS) and the number of viable cells determined. Cells were resuspended in sterile PBS at a concentration of […]. The mice were intravenously injected, via a tail vein, with 0.1 ml of cell suspension (i.e. approximately 1×10^5 cells/mouse) on Day 0. The mice were examined daily for signs of laboured breathing or distress due to extensive metastatic disease. Mice were exposed to the appropriate test substance for 41 h 32 min prior to tumour cell injection (from Day −2 to Day 0). Following tumour cell implant, the test substances were removed, and animals in all groups received drinking water alone for the remainder of the study.
Sampling and analysis: The animals were terminated on Day 21 (21 days after injection of the tumour cells). Blood samples were taken from 3 mice from each group on the day of termination. Animals were anaesthetized with carbon dioxide and blood samples of maximal volume taken by cardiac puncture and collected in plain tubes. Samples were left to clot at room temperature for a minimum of 1 h prior to serum removal, Serum samples were stored at approximately −70° C. prior to analysis. Immediately after performing the bleeds, the spleens were removed from the 3 selected mice. The spleens from these mice were pooled in a petri dish with approximately 3-5 ml of RPMI 1640 tissue culture medium (batch number 3092202; Invitrogen, Paisley, UK) containing 0.52% penicillin/streptomycin (Pen/Strep; batch number 44K2412; Sigma Aldrich, Poole, UK) prior to splenocyte isolation. The spleens from each group were placed in a glass homogeniser with an additional 10-15 ml of medium and homogenised until opaque. The suspension was then placed in a 50 ml centrifuge tube. On occasions when there was significant cell debris, this was allowed to settle before removing the suspension and placing in a fresh tube. The homogenate was then centrifuged at approximately 200×‘g’ for 5 min at approximately 4° C.

[5] = tested on: N-acetyl-β-D-glucosaminidase; assay: Glycosidase inhibition: N-acetyl-β-D-glucosaminidase; assay type: biochemical, Bovine; conditions: 1 mg/ml
In short: as §1

α-D-glucosidase [6] = biological target: T2, α-D-glucosidase (Oryza sativa subsp. japonica, UniProt Q653V7); assay: Glycosidase inhibition: α-D-glucosidase, rice; assay type: biochemical, rice (Oryza sativa); conditions: 1 mg/ml; read-out: % inhibition, gluc (rice)
T2 construct: purchased Sigma
In short: as §1

T2 sequence (Q653V7 34-885): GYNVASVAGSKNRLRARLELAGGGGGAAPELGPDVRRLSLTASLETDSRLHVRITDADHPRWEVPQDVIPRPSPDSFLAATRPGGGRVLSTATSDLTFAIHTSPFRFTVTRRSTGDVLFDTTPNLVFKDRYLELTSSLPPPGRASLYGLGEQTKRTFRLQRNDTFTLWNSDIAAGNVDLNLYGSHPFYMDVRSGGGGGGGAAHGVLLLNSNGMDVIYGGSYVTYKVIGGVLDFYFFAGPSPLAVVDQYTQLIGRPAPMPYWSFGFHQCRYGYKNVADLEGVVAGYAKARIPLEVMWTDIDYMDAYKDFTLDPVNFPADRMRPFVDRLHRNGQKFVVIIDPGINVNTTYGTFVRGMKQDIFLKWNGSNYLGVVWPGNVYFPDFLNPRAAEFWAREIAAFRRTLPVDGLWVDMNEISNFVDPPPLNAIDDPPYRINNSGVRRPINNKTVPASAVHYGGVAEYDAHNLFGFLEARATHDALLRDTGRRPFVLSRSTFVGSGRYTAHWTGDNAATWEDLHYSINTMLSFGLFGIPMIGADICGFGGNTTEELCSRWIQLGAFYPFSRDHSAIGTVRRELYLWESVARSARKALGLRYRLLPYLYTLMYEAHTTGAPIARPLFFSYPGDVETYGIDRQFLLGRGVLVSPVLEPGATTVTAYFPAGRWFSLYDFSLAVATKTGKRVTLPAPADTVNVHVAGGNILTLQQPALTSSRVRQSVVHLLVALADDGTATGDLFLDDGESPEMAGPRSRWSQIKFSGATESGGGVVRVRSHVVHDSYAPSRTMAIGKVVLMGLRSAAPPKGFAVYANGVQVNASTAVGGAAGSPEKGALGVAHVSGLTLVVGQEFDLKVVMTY
T1 sequence (P07768 1008-1827 limits assumed): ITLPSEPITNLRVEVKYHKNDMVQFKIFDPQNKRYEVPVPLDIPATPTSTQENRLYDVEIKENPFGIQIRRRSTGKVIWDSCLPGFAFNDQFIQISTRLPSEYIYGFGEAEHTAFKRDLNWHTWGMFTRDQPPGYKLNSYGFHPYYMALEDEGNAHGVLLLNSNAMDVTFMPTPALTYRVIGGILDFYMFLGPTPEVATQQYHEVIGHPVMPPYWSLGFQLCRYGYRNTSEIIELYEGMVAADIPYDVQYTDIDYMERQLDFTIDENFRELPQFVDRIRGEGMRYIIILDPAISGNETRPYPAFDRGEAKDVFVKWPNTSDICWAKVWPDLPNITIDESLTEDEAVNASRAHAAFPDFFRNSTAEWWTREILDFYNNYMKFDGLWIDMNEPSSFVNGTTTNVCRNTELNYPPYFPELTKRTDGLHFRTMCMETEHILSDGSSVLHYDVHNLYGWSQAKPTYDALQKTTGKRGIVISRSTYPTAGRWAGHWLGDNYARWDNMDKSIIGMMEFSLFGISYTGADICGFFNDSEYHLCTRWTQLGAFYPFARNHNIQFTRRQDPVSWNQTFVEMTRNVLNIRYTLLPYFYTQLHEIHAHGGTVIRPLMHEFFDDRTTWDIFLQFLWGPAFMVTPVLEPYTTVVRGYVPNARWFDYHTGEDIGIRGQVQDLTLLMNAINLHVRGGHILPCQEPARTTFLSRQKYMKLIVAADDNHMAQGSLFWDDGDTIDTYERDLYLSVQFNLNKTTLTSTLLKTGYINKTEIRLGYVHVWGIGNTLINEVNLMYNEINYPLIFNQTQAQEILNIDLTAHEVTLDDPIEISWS
T1 sequence (P07768 2-1007 partner limits assumed): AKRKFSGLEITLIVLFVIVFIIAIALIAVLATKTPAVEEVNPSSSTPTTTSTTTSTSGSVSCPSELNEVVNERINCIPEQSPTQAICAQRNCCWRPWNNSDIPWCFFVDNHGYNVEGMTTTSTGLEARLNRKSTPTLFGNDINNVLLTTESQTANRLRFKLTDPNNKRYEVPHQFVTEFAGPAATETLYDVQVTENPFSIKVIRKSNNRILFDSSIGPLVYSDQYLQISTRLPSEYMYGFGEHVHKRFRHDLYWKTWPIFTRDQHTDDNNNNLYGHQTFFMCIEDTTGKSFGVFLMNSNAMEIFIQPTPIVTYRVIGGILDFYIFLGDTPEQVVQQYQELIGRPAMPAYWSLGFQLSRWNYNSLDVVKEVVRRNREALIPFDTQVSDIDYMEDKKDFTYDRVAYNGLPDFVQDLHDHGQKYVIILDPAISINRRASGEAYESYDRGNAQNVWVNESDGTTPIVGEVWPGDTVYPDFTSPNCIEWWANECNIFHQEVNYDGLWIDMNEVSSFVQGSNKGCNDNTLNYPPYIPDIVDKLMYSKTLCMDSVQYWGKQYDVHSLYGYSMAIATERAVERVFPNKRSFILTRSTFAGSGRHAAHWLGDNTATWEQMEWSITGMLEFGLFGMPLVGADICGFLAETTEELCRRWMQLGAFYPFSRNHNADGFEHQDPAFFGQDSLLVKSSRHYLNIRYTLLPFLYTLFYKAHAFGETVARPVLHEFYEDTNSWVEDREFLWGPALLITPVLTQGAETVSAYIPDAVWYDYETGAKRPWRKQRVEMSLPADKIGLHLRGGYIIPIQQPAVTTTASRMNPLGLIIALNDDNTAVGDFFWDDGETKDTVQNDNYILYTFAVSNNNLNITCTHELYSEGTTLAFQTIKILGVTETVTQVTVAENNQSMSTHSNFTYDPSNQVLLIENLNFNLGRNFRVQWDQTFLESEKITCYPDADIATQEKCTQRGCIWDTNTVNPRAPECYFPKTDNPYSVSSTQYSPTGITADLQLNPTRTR

SMILES: OC[C@@H]1[C@@H](O)[C@H](O)[C@H]2[C@H](O)[C@@H](O)CN21 [casuarine (8)]
- % inhibition, Naringinase (Naringinase): −2%
- Metastatic morphology (B16-F10 tumour cells): Metastasis restricted to apical tip of lung
- % inhibition, gluc (Bacillus) (α-D-glucosidase [1]): 86%
- inhibition of rabbit small intestine sucrase [2]: inhibited
- Glucose uptake ([3]; initial rate, competition with labelled D-glucose, control 240): 265 pmol/s/mg
- glucose transport, effect ([3]; versus control): slightly stimulated
- pIC50 [4]: 3.68
- inhibition of almond β-D-glucosidase (β-D-glucosidase; 800 μM): not being inhibitory
- % inhibition, glucosidase (β-D-glucosidase; 1 mg/ml): 0%
- Colony Count (B16G/F10 melanoma cells; 0.03 μg/ml in drinking water before tumour cell injection): 17.00 ± 6.97
- % Reduction (B16G/F10 melanoma cells; 0.03 μg/ml in drinking water): 76%
- Colony Count (B16G/F10 melanoma cells; 3 μg/ml in drinking water before tumour cell injection): 35.40 ± 7.47
- % Reduction (B16G/F10 melanoma cells; 3 μg/ml in drinking water): 49%
- Colony Count (B16G/F10 melanoma cells; 0.3 mg/ml in drinking water before tumour cell injection): 38.50 ± 11.49
- % Reduction (B16G/F10 melanoma cells; 0.3 mg/ml in drinking water): 45%
- % inhibition, N-acetyl-β-gluc [5]: 14%
- inhibition at 1000 µg/mL (α-D-glucosidase [6]): 76%
